Measurements from patent US12320800B2, “High-throughput automation of organoids for identifying therapeutic strategies” (UNIVERSITY OF WASHINGTON, priority 2018, dated 2025).
“Also recorded” adds a separate entry of the source.

Key:
[1] = system: PKD1−/− and PKD2−/− mutant organoids; experiment: Prophylactic effect of myosin activators on cyst formation in PKD organoids in suspension; type: cell-based, human
Excerpt: (§1) Cyst formation. In adherent cultures (untreated), ‘cysts’ were identified as large, balloon-like, translucent structures that swayed in response to agitation. Flat rings and dilated tubules were not counted as cysts and occasionally appeared even in non-PKD controls. […] Wells were imaged using a Nikon TiE inverted wide-field microscope and cysts were quantified using ImageJ cell counter. To generate large cysts in suspension, adherent organoids were microdissected with a 23-gauge syringe needle from 24-well plates on an inverted phase-contrast microscope, and carefully transferred using a transfer pipette into a low-adhesion 6-well plate (Corning) containing 2 ml RB. The organoids were isolated on the twenty-first day of differentiation, before cysts formed. RB media was changed by gravity every three days, and cystogenesis was assessed at two weeks after replating.
EMD was efficient at rescuing cyst formation at the lowest dose tested (3 μM) and worked in both PKD1^−/− and PKD2^−/− mutant organoids.

cell stiffness = details: cited from earlier work
myosin = details: cited from earlier work; for effect: Table 5 listing
[2] = system: PKD organoids or isogenic controls; experiment: Cyst formation in adherent kidney organoids treated with forskolin or 8-Br-cAMP; type: cell-based, human
Excerpt: as §1

[3] = system: Polycystic Kidney Disease (PKD) patients; details: cited from earlier work
[4] = system: PKD organoids (mutations in polycystin-1); experiment: Small-scale screen of PKD cystogenesis modifiers in 96-well organoid plates; type: cell-based, human; set-up: dose or concentration left out as unconfirmed; details: 7 days, blebbistatin at highest concentration
Procedure: (§2) Cyst generation. PKD1^−/− and PKD2^−/− hPSCs or isogenic controls were differentiated in microwell plates in adherent cultures. Forskolin (Sigma) was added to microwell plates during automated liquid handling on the 21st day after differentiation. Large swellings rapidly developed and grew to full size over 72 hours. Cysts were identified by comparing images with captured with high-content imaging prior to forskolin treatment, and after 72 hours. Screening of PKD cystogenesis was performed in duplicate in 96-well plates to provide sufficient space and numbers of organoids per well. Factors were plated at four different concentrations for seven days, and the organoids were scanned visually on a phase-contrast microscope for increased or decreased cyst formation. […] Cyst diameters were measured using NIS Elements imaging software (Nikon). […]

PKD organoids = experiment: Blebbistatin cystogenesis in suspension culture, PKD organoids; type: cell-based, human; set-up: time after which PKD organoids formed cysts: dose or concentration left out as unconfirmed
Procedure: Cyst generation. […] Forskolin (Sigma) was added to microwell plates during automated liquid handling on the 21st day after differentiation. Large swellings rapidly developed and grew to full size over 72 hours. Cysts were identified by comparing images with captured with high-content imaging prior to forskolin treatment, and after 72 hours. Screening of PKD cystogenesis was performed in duplicate in 96-well plates to provide sufficient space and numbers of organoids per well. Factors were plated at four different concentrations for seven days, and the organoids were scanned visually on a phase-contrast microscope for increased or decreased cyst formation. […] To test cystogenesis in suspension, adherent organoids were microdissected with a 23-gauge syringe needle from 24-well plates on an inverted phase-contrast microscope, and transferred into a low-adhesion 6-well plate (Corning) containing 2 mL RB or 2 mL RB with […] blebbistatin. Organoids were imaged daily on a Nikon Ti Inverted Widefield microscope for a period of 7 days. Cyst diameters were measured using NIS Elements imaging software (Nikon). Contiguous microscopic fields were collected using an automated stage and stitched together using NIS Elements software to generate large images of wells or plates.

[5] = system: control organoids of identical genetic background that lacked PKD mutations; experiment: Blebbistatin cystogenesis in suspension culture, control organoids; type: cell-based, human; details: 3 days after treatment
Procedure: as §2, with “PKD1^−/− and PKD2^−/− hPSCs or isogenic controls were differentiated in microwell plates in adherent cultures.” left out

[6] = system: endothelial cells (ECs) in kidney organoid cultures
Procedure: Kidney differentiation in microwell plates. hPSCs were dissociated with Accutase (Stem Cell Technologies) and plated onto microwell plates pre-coated with GelTrex in mTeSR1 supplemented with 10 mMRho-kinase inhibitor Y27632 (StemGent). The media was replaced with mTeSR1+1.5% GelTrex at 16 hours, 12 mMCHIR99021 in Advanced RPMI+Glutamax (Life Technologies) at 60 hours, and RB (Advanced RPMI+Glutamax+B27 Supplement, from Life Technologies) at 96 hours. […] RB was changed two days later and every three days thereafter. For experiments involving modulation of endothelial cell media was supplemented with VEGF165 (Peprotech, 12.5 to 200 ng/ml). Alternatively (Protocol B, FIG. 31A), the protocol described by Takasato et al. was adapted for adherent culture: undifferentiated hPSCs were plated overnight and treated the following morning with 8 mM CHIR99021 in APEL media (StemCell Technologies) for 48-72 hr, 30 ng/ml FGF9 (Peprotech)+1 mg/ml heparin (StemCellTechnologies) in APEL for 96 hr, and cultured thereafter in APEL, replaced every three days. Alternatively, to generate endothelial cells without kidney organoids, 100,000 hPSCs/cm2 were plated in mTeSR1+10 mM Y27632+1 mM CHIR99021, replaced with RPMI+B27 minus insulin+1.5% Geltrex+50 ng/mL Activin A (R&D) at 24 h, RPMI+B27 minus insulin+40 ng/mL BMP4 (Peprotech)+1 mL CHIR99021 at 61 h, and StemPro 34 (Thermo Fisher Scientific)+2 mM Glutamax+50 mg/mL ascorbic acid (Sigma)+10 ng/mL BMP4+5 ng/mL bFGF (Peprotech)+300 ng/mL VEGF165 at 85 h for a 72-hour incubation.
Immunohistochemistry. For confocal microscopy, kidney organoids were differentiated on 96-well No, 1.5 coverslip glass-bottom plates (Mat-Tek). To fix, an equal volume of 8% paraformaldehyde (Electron Microscopy Sciences) was added to the culture media (4% final concentration) for 15 minutes at room temperature. […] Fluorescence images were captured using an inverted Nikon epifluorescence Eclipse Ti or A1R confocal microscope. […]

[7] = scRNA-seq, in the presence of VEGF

CC(=O)c1ccc(O)cc1 [4-HAP, 4-hydroxyacetophenone]
effect on PKD organoid cysts [1]: less activity than EMD | effect on cyst growth in PKD1−/− organoids ([1]; 300 μM (FIG. 22)): Positive effects | concentration range showing effects on cell stiffness (cell stiffness): 5 to 50 µM | effect (myosin): ↑ myosin IIB, IIC | myosin II paralogs affected (myosin): specifically affect non-muscle myosins IIB and IIC, but not IIA

Nc1ncnc2c1nc(Br)n2[C@@H]1O[C@@H]2COP(=O)(O)O[C@H]2[C@H]1O [8-Br-cAMP]
doses that did not produce cysts ([2]; PKD or control organoids, adherent): < 1 mM | swelling of adherent organoids into cyst-like structures ([2]; adherent cultures, added on day 21 of differentiation): induced swelling, although the effect was much less pronounced

N#C/C(=C\c1cc(O)c(O)c(O)c1)C(=O)NCCCNC(=O)/C(C#N)=C/c1cc(O)c(O)c(O)c1 [Bis-T-23]
effect (myosin): ↑ actin polymerization

O=S(=O)(NCCNC/C=C/c1ccc(Br)cc1)c1cccc2cnccc12 [H-89]
effect (myosin): ↓ PKA

Cc1ccccc1C(=O)Nc1ccc(C(=O)N2CCCC(O)c3cc(Cl)ccc32)c(C)c1 (stereo not shown) [Tolvaptan]
effect on PKD cysts (shrinking / prevention) ([3]; PKD patients): does not shrink PKD cysts or prevent them from forming | improve glomerular filtration rate (GFR) ([3]; PKD patients): ~1.5 ml/min/yr | side effects ([3]; PKD patients): can damage the liver; also recorded: frequent thirst and occasional severe hepatotoxicity | slow the growth of total kidney volume (TKV) ([3]; PKD patients): ~3 %/yr | effect on PKD, cyst growth ([3]; patients with severe disease): 3 % year

CCCCC[C@H](O)/C=C/[C@@H]1[C@@H](C/C=C\CCCC(=O)O)[C@H]2CO[C@@H]1C2 [U46619]
effect (myosin): ↑ Rho-kinase

Cc1ccc2c(c1)C(=O)C1(O)CCN(c3ccccc3)C1=N2 (stereo not shown) [blebbistatin]
change in cyst formation [4]: significant increase in cyst formation | diameter and number of cysts (PKD organoids; 7 days of treatment, suspension): Both the diameter and number of cysts were increased | increase in rate of cystogenesis (PKD organoids; PKD organoids, suspension, 3 days after treatment): 40% | damage to organoids (PKD organoids; at this concentration and time frame): no damage to organoids was observed | time after which PKD organoids formed cysts (PKD organoids; suspension culture, blebbistatin): 24 h | cyst size after removal of blebbistatin (PKD organoids; washout after 7 days of treatment): cyst size declined | increase in rate of cystogenesis [5]: 10%

CNc1ccc2oc(C[C@H]3O[C@@]4(CC[C@H]3C)O[C@H]([C@H](C)C(=O)c3ccc[nH]3)[C@H](C)C[C@H]4C)nc2c1C(=O)O [calcium ionophore]
effect (myosin): ↑ calmodulin

CCCC[C@@H](C=O)NC(=O)[C@H](CC(C)C)NC(=O)OCc1ccccc1 [calpeptin]
effect (myosin): ↑ Rho-kinase

C[C@@H](O)[C@@H]1NC(=O)[C@H](CCCCN)NC(=O)[C@@H](Cc2c[nH]c3ccccc23)NC(=O)[C@H](Cc2ccccc2)NC(=O)[C@@H](NC(=O)[C@H](N)Cc2ccccc2)CSSC[C@@H](C(=O)N[C@H](CO)[C@@H](C)O)NC1=O [octreotide]
effect on PKD organoid cysts [1]: the same effect is not seem; also recorded: do not affect PKD cysts

COC(=O)N1CCN(Cc2cccc(NC(=O)Nc3ccc(C)nc3)c2F)CC1 [omecamtiv mercabil]
effect on PKD organoid cysts [1]: the same effect is not seem; also recorded: do not affect PKD cysts | effect on cyst growth in PKD1−/− organoids ([1]; 20 μM, highest dose tried (FIG. 22)): ineffective at the highest dose that was tried | effect (myosin): ↑ cardiac myosin S1

VEGF
increase in ECs expressing CD31 and VE-cadherin ([6]; VEGF added during differentiation, immunofluorescence): approximately 10 fold | MCAM+ cells, share of all cells [6, 7]: 5% | MCAM+ cells, share of cells within the six kidney clusters [6, 7]: 9.5%
